ChEMBL document CHEMBL1128211, “3D-quantitative structure-activity relationships of human immunodeficiency virus type-1 proteinase inhibitors: comparative molecular field analysis of 2-heterosubstituted statine derivatives-implications for the design of novel inhibitors” (J Med Chem, 1995)

Biological target: Human immunodeficiency virus type 1 protease (Human immunodeficiency virus 1, UniProt Q72874)
Experiment: Inhibitory activity was determined against HIV type 1 protease

Ki	Compound
0.00776 µM	COc1ccc(CN[C@@H](C(=O)N[C@H](C(=O)NCc2nc3ccccc3[nH]2)C(C)C)[C@H](O)[C@H](Cc2ccccc2)NC(=O)[C@@H](NC(=O)CCc2ccc(P(=O)(O)O)cc2)C(C)(C)C)cc1
0.0135 µM	CC(C)[C@H](NC(=O)OCc1ccccc1)C(=O)N[C@@H](Cc1ccccc1)[C@@H](O)[C@@H](NCc1ccccc1)C(=O)N[C@H](C(=O)NCc1cccnc1)C(C)C
3.72 µM	CCOC(=O)[C@H](NCc1ccc(Cl)cc1)[C@H](O)[C@H](Cc1ccc(OC)cc1)NC(=O)OC(C)(C)C
0.02 µM	CC(C)[C@H](NC(=O)OCc1ccccc1)C(=O)N[C@@H](Cc1ccccc1)[C@@H](O)[C@@H](NCc1ccccc1)C(=O)N[C@H](C(=O)NCc1ccccc1)C(C)(C)C
2.29 µM	COc1ccc(CN[C@@H](C(=O)NCc2nc3ccccc3[nH]2)[C@H](O)[C@H](Cc2ccccc2)NC(=O)OC(C)(C)C)cc1
0.0151 µM	CC(C)[C@H](NC(=O)OCc1ccccc1)C(=O)N[C@@H](Cc1ccccc1)[C@@H](O)[C@@H](NCc1ccccc1)C(=O)N[C@H](C(=O)NCc1ccc(Br)cc1)C(C)C
0.012 µM	COc1ccc(CN[C@@H](C(=O)N[C@H](C(=O)N(C)Cc2nc3ccccc3[nH]2)C(C)C)[C@H](O)[C@H](Cc2ccccc2)NC(=O)OC(C)(C)C)cc1
0.0158 µM	COc1ccc(CN[C@@H](C(=O)N[C@H](C(=O)Nc2ccc3ncsc3c2)C(C)C)[C@H](O)[C@H](Cc2ccccc2)NC(=O)[C@@H](NC(=O)OCc2ccccc2)C(C)C)cc1
0.0158 µM	COc1ccc(CN[C@@H](C(=O)N[C@H](C(=O)NCC2CCCCC2O)C(C)C)[C@H](O)[C@H](Cc2ccccc2)NC(=O)[C@@H](NC(=O)OCc2ccccc2)C(C)C)cc1 (some centres undefined)
1.1 µM	COC(=O)[C@@H](NC(=O)[C@H](NCc1ccccc1)[C@H](O)[C@H](Cc1ccccc1)NC(=O)[C@@H](NC(=O)OCc1ccccc1)C(C)C)C(C)C
0.017 µM	CC(C)[C@H](NC(=O)OCc1ccccc1)C(=O)N[C@@H](CCc1ccccc1)[C@@H](O)[C@@H](NCc1ccc(Cl)cc1)C(=O)N[C@H](C(=O)NCc1nc2ccccc2[nH]1)C(C)C
0.0537 µM	CC(C)(C)[C@H](NC(=O)OCc1ccccc1)C(=O)N[C@@H](Cc1ccccc1)[C@@H](O)[C@@H](NCc1ccc(CNC(=O)CCc2nc3ccccc3[nH]2)cc1)C(=O)NCc1ccccc1
0.0151 µM	COc1ccc(CN[C@@H](C(=O)N[C@H](C(=O)NCc2nc3cc[nH]cc-3n2)C(C)C)[C@H](O)[C@H](Cc2ccccc2)NC(=O)OC(C)(C)C)cc1
0.0141 µM	COc1ccc(CN[C@@H](C(=O)N[C@H](C(=O)N[C@H](CO)c2ccccc2)C(C)C)[C@H](O)[C@H](Cc2ccccc2)NC(=O)[C@@H](NC(=O)OCc2ccccc2)C(C)C)cc1
0.0427 µM	CC(C)[C@H](NC(=O)c1ccc2ccccc2n1)C(=O)N[C@@H](Cc1ccccc1)[C@@H](O)[C@@H](NCc1ccccc1)C(=O)N[C@H](C(=O)NCc1ccccn1)C(C)C
0.0891 µM	COc1ccc(CN[C@@H](C(=O)N[C@H](C(=O)NCc2nc3ccccc3[nH]2)c2ccccc2)[C@H](O)[C@@H](N)Cc2ccccc2)cc1
1.2 µM	CC(C)(C)OC(=O)N[C@@H](Cc1ccccc1)[C@@H](O)[C@@H](NCc1ccc(OCCO)cc1)C(=O)NCc1ccccc1
0.0468 µM	COc1ccc(CN[C@@H](C(=O)NCCC(=O)NCc2nc3ccccc3[nH]2)[C@H](O)[C@H](Cc2ccccc2)NC(=O)[C@@H](NC(=O)OCc2ccccc2)C(C)C)cc1
0.011 µM	CC(C)[C@H](NC(=O)OCc1ccccc1)C(=O)N[C@@H](Cc1ccccc1)[C@@H](O)[C@@H](NCc1ccccc1)C(=O)N[C@H](C(=O)NCc1ccncc1)C(C)C
0.0288 µM	COc1ccc(CN[C@@H](C(=O)N[C@H](C(=O)NCCn2ccnc2)C(C)C)[C@H](O)[C@H](Cc2ccccc2)NC(=O)[C@@H](NC(=O)OCc2ccccc2)C(C)C)cc1
0.0692 µM	CC(C)(C)[C@H](NC(=O)OCc1ccccc1)C(=O)N[C@@H](Cc1ccccc1)[C@@H](O)[C@@H](NCc1ccc(OCCN2CCOCC2)cc1)C(=O)NCc1ccccc1
0.01 µM	COc1ccc(CN[C@@H](C(=O)N[C@H](C(=O)Nc2nc3ccccc3[nH]2)C(C)C)[C@H](O)[C@H](Cc2ccccc2)NC(=O)[C@@H](NC(=O)OCc2ccccc2)C(C)C)cc1
0.00692 µM	CC(C)[C@H](N)C(=O)C[C@@H](Cc1ccccc1)[C@@H](O)[C@H]1CCc2ccc(cc2)OCCOCCCOCCNC(=O)[C@H](C(C)C)CC1=O
0.138 µM	CC(C)[C@H](NC(=O)COc1ccccc1)C(=O)N[C@@H](Cc1ccccc1)[C@@H](O)[C@@H](NCc1ccccc1)C(=O)NCc1ccccc1
0.107 µM	CC(C)(C)[C@H](NC(=O)OCc1ccccc1)C(=O)N[C@@H](Cc1ccccc1)[C@@H](O)[C@@H](NCc1ccccc1)C(=O)NC(CO)c1ccccc1 (some centres undefined)
0.00977 µM	COc1cccc(CN[C@@H](C(=O)N[C@H](C(=O)NCc2nc3ccccc3[nH]2)C(C)C)[C@H](O)[C@H](Cc2ccccc2)NC(=O)[C@@H](NC(=O)OCc2ccccc2)C(C)C)c1

Ki	Compound
0.0331 µM	CC(C)[C@H](NC(=O)OCCCCCN)C(=O)N[C@@H](Cc1ccccc1)[C@@H](O)[C@@H](NCc1ccccc1)C(=O)N[C@H](C(=O)NCc1ccccc1)C(C)C
0.0257 µM	COc1ccc(CN[C@@H](C(=O)N[C@H](C(=O)NCCN(C)C)C(C)C)[C@H](O)[C@H](Cc2ccccc2)NC(=O)[C@@H](NC(=O)OCc2ccccc2)C(C)C)cc1
0.55 µM	Cc1cn(CCO)c(=O)n(CCOC(=O)[C@@H](NC(=O)[C@H](NCc2ccccc2)[C@H](O)[C@H](Cc2ccccc2)NC(=O)[C@@H](NC(=O)OCc2ccccc2)C(C)C)C(C)C)c1=O
1.51 µM	COc1ccc(CN[C@@H](C(=O)NCC(=O)Nc2cnccc2N)[C@H](O)[C@H](Cc2ccccc2)NC(=O)[C@@H](NC(=O)OCc2ccccc2)C(C)C)cc1
0.0151 µM	CC(C)[C@H](NC(=O)OCc1ccccc1)C(=O)N[C@@H](Cc1ccccc1)[C@@H](O)[C@@H](NCc1ccc(Br)cc1)C(=O)N[C@H](C(=O)NCc1nc2ccccc2[nH]1)C(C)C
0.00427 µM	COc1ccc(CN[C@@H](C(=O)N[C@H](C(=O)NCc2nc3ccccc3[nH]2)C(C)C)[C@H](O)[C@H](Cc2ccccc2)NC(=O)[C@@H](NC(=O)CCc2ccc(O)c(I)c2)C(C)(C)C)cc1
3.02 µM	COc1ccc(CN[C@@H](C(=O)NCc2ccc(OC)cc2O)[C@H](O)[C@H](Cc2ccccc2)NC(=O)[C@@H](NC(=O)OCc2ccccc2)C(C)C)cc1
0.417 µM	CC(C)[C@H](NC(=O)[C@H](NCc1ccccc1)[C@H](O)[C@H](Cc1ccccc1)NC(=O)[C@@H](NC(=O)OC(C)(C)C)C(C)(C)C)C(=O)NCc1ccccc1
0.0372 µM	CCOc1ccc(CN[C@@H](C(=O)NCc2ccccc2)[C@H](O)[C@H](Cc2ccccc2)NC(=O)[C@@H](NC(=O)OCc2ccccc2)C(C)(C)C)cc1
0.646 µM	CC(C)[C@H](NC(=O)[C@H](NCc1ccccc1)[C@H](O)[C@H](Cc1ccccc1)NC(=O)[C@@H](NC(=O)N(C)c1ccccc1)C(C)(C)C)C(=O)NCc1ccccc1
0.0105 µM	COc1ccc(CN[C@@H](C(=O)N[C@H](C(=O)Nc2nc3ccccc3s2)C(C)C)[C@H](O)[C@H](Cc2ccccc2)NC(=O)[C@@H](NC(=O)OCc2ccccc2)C(C)C)cc1
0.0209 µM	COc1ccc(CN[C@@H](C(=O)N[C@H](C(=O)NCc2nc3ccccc3[nH]2)C(C)C)[C@H](O)[C@H](Cc2ccccc2)NC(=O)[C@@H](NC(=O)OC(C)(C)C)C(C)C)cc1
0.011 µM	CC(C)C[C@H](NC(=O)[C@H](NCc1ccccc1)[C@H](O)[C@H](Cc1ccccc1)NC(=O)[C@@H](NC(=O)OCc1ccccc1)C(C)C)C(=O)NCc1ccccc1
2.51 µM	CC(C)(C)OC(=O)N[C@@H](Cc1ccccc1)[C@@H](O)[C@@H](NCc1ccccc1)C(=O)NCc1ccccc1
0.0126 µM	COc1ccc(CCN[C@@H](C(=O)N[C@H](C(=O)NCc2nc3ccccc3[nH]2)C(C)C)[C@H](O)[C@H](Cc2ccccc2)NC(=O)[C@@H](NC(=O)OCc2ccccc2)C(C)C)cc1
0.0141 µM	CCCCCCCCOC(=O)N[C@H](C(=O)N[C@@H](Cc1ccccc1)[C@@H](O)[C@@H](NCc1ccccc1)C(=O)N[C@H](C(=O)NCc1ccccc1)C(C)C)C(C)(C)C
0.00955 µM	COc1cccc(CN[C@@H](C(=O)N[C@H](C(=O)NCc2ccccc2)C(C)C)[C@H](O)[C@H](Cc2ccccc2)NC(=O)[C@@H](NC(=O)OCc2ccccc2)C(C)C)c1
0.0912 µM	CCOc1ccc(CN[C@@H](C(=O)N[C@H]2c3ccccc3CC2O)[C@H](O)[C@H](Cc2ccccc2)NC(=O)OC(C)(C)C)cc1 (some centres undefined)
0.0129 µM	CC(C)[C@H](NC(=O)[C@H](NCc1ccccc1)[C@H](O)[C@H](Cc1ccccc1)NC(=O)[C@@H](NC(=O)CCc1ccc(O)cc1)C(C)(C)C)C(=O)NCc1ccccc1
0.0158 µM	CC(C)(C)[C@H](NC(=O)OCc1ccccc1)C(=O)N[C@@H](Cc1ccccc1)[C@@H](O)[C@@H](NCc1ccc(OCCO)cc1)C(=O)N[C@H]1c2ccccc2CC1O (some centres undefined)
0.0102 µM	COc1ccc(CN[C@@H](C(=O)N[C@H](C(=O)NCc2ccccc2)C(C)C)[C@H](O)[C@H](Cc2ccccc2)NC(=O)[C@@H](NC(=O)N(C)Cc2nc3ccccc3[nH]2)C(C)C)cc1
0.0339 µM	CC(C)(C)[C@H](NC(=O)OCc1ccccc1)C(=O)N[C@@H](Cc1ccccc1)[C@@H](O)[C@@H](NCc1ccc(OCCO)cc1)C(=O)NCc1ccccc1
0.00955 µM	COc1ccc(CN[C@@H](C(=O)N[C@@H]2c3ccccc3CC2O)[C@H](O)[C@H](Cc2ccccc2)NC(=O)[C@@H](NC(=O)OCc2ccccc2)C(C)(C)C)cc1 (some centres undefined)
0.0155 µM	COc1ccc(CN[C@@H](C(=O)NCC(=O)NCc2nc3ccccc3[nH]2)[C@H](O)[C@H](Cc2ccccc2)NC(=O)[C@@H](NC(=O)OCc2ccccc2)C(C)C)cc1
1.58 µM	CC(C)(C)[C@H](NC(=O)OCc1ccccc1)C(=O)N[C@@H](Cc1ccccc1)[C@@H](O)[C@@H](NCc1ccccc1)C(=O)N[C@@H]1c2ccccc2CC1O (some centres undefined)
0.0282 µM	CC(C)[C@H](NC(=O)OCc1ccccc1)C(=O)N[C@@H](Cc1ccccc1)[C@@H](O)[C@@H](NC[C@H](O)c1ccccc1)C(=O)N[C@H](C(=O)NCc1nc2ccccc2[nH]1)C(C)C

Compound	Ki
CC(C)(C)OC(=O)N[C@@H](Cc1ccccc1)[C@@H](O)[C@@H](NCc1ccc(CNC(=O)CCc2nc3ccccc3[nH]2)cc1)C(=O)N[C@H]1c2ccccc2CC1O (some centres undefined)	0.0407 µM
CC(C)(C)[C@H](NC(=O)OCc1ccccc1)C(=O)N[C@@H](Cc1ccccc1)[C@@H](O)[C@@H](NCc1ccc(CNC(=O)Nc2ccccc2)cc1)C(=O)N[C@H]1c2ccccc2CC1O (some centres undefined)	0.00331 µM
